Laboratory results reported in patent US9872882B2, “Aurantiamide dipeptide derivatives for treatment or prevention of angiogenesis-related diseases” (Mackay Medical College, priority 2015, dated 2018).

Assays:
late EPCs [1] = assay: Cytotoxicity assay (LDH release); assay type: cell-based, human; settings: 48 h, even at high concentration (30 μM), FIG. 1C
Experimental: (§1) This investigation conforms with the principles outlined in the Declaration of Helsinki for use of human tissue. Ethical approval was granted by the Institutional Review Board of the Mackay Memorial Hospital, Taipei, Taiwan. Informed consent was obtained from healthy donors before the collection of peripheral blood (80 mL). The peripheral blood mononuclear cells (PBMCs) were fractionated from other blood components by centrifugation on Ficoll-Paque™ plus (GE Healthcare) according to the manufacturer's instructions. CD34-positive progenitor cells were obtained and cultured. In brief, the cells were isolated from PBMCs using CD34 MicroBead kit and MACSTM Cell Separation System (all from Miltenyi Biotec). CD34-positive EPCs were maintained in MV2 complete medium (PromoCell) consisting of endothelial basal medium, 20% fetal bovine serum, hEGF, VEGF, hFGF-B, IGF-1, ascorbic acid, and heparin. 1×10^6 cells/cm^2 were seeded on fibronectin-coated dish (BD Biosciences) and maintained in 37° C. incubator under a humidified 95% air and 5% CO2 atmosphere.
EPCs were treated with MV2 complete medium containing 2% FBS for 48 h in the absence or presence of Fmoc-10a. The percentage of LDH release was calculated from the ratio of LDH activity in the medium to LDH activity in the cell lysate after Fmoc-10a treatment.

B16F10 cells = assay: Experimental metastasis model; assay type: in vivo, C57BL/6 mice; settings: B16F10 tail vein; 1.5 or 4.5 mg/kg intraperitoneally every day, FIG. 4D
Experimental: B16F10 cells (2×10^6) were slowly injected into the lateral tail vein of C57BL/6 mice to initiate tumor metastasis. Fmoc-10a (1.5 or 4.5 mg/kg) was intraperitoneally administered to mice every day from 3 days before tumor cell injection to 21 days after tumor cell injection (the day sacrificed).

B16F10 melanoma = assay: Subcutaneous xenograft model; assay type: in vivo, C57BL/6 mice; settings: daily intraperitoneal injection, FIG. 4C
Experimental: B16F10 cells (2×10^6) in a volume of 100 μL were injected subcutaneously into the right flank of the C57BL/6 mice. After 9 days, when tumors reached 2 mm in diameter, the mice were randomly given vehicle or the indicated doses of Fmoc-10a daily by intraperitoneal injection. Tumor size and body weight were measured every day. The tumor volume was calculated according to the following formula: V=(length×width^2/2). In accordance with the Animal Ethics Committee, the experiments should be stopped when an unbearable situation appeared in animals.

late EPCs [2] = assay: Cell proliferation assay (MTT); assay type: cell-based, human; settings: 48 h treatment, FIG. 1B
Experimental: as §1
EPCs (5×10^3 cells/well) were seeded onto 96-well plates. After 24 h incubation, the culture medium was removed and cells were incubated with fresh MV2 complete medium containing 2% FBS for 48 h in the absence or presence of Fmoc-10a. […] Formazan crystal was lysed by dimethyl sulfoxide (DMSO) and absorbance was measured at 550 nm with ELISA-reader.

B16F10 melanoma cells = assay: Matrigel invasion assay; assay type: cell-based, mouse; settings: B16F10, 16 h, FIG. 4A
Experimental: (§2) Mouse melanoma cell line (B16F10) was obtained from American Type Culture Collection (ATCC, Manassas, Va.) and cultured in DMEM containing 10% FBS, penicillin (100 units/ml), streptomycin (100 μg/ml), and L-glutamine (2[…]mM). Cells were maintained in humidified air containing 5% CO2 at 37° C.
The upper side of the filters was coated with Matrigel (BD Biosciences, Bedford, Mass.) at a concentration of 125 […]μg/cm^2. B16F10 cells (5×10^4 cells/well) were seeded onto the upper chamber with serum-free medium, then incubated in the bottom chamber with culture medium containing 10% FBS in the absence or presence of Fmoc-10a. After 16 h of treatment, cells on the upper side of the filters were mechanically removed, and those migrated on the lower side were fixed with 4% formaldehyde, then stained with 0.5% crystal violet for 10 min. Finally, invaded cells were quantified by counting the number of stained cells in 10 random fields with the inverted phase contrast microscope and photographed.

[3] = system: VEGF-induced vessels sprouting from aortic rings; assay: Aortic ring sprouting assay (ex vivo); parameters: species or system Sprague-Dawley rats; settings: VEGF 20 ng/ml, day 8, FIG. 3A
Experimental: Aortas were harvested from 8- to 10-week-old Sprague-Dawley rats. Following a complete washing, the aortas were cut into 1 mm ring segments. The aortic rings were placed in the 48-well plates which were pre-coated with 130 μl Matrigel and polymerized at 37° C. The wells were subsequently overlaid with another 50 μl Matrigel for sealing. VEGF (20 ng/ml) with or without Fmoc-10a was then added to the well. The cultured medium was changed every 3 days. Sprouting endothelial cells were observed and photographed on day 8. The area of sprouting vessels was measured quantitatively by Image-Pro Plus software.

early EPCs [4] = assay: Colony-forming assay (CFU-Hill); assay type: cell-based, human; settings: FIGS. 2A&2B
Text: Isolated PBMCs are resuspended in MV2 complete medium. After 2 days, the nonadherent cells were collected and replated onto a fibronectin-coated 24-well plate. Five days later, the number of colony-forming units (CFUs) od early EPCs per well was counted.

late EPCs [5] = assay: Capillary tube formation assay on Matrigel; assay type: cell-based, human; settings: 16 h treatment, FIG. 1E
Experimental: as §1
Matrigel (BD Biosciences, Bedford, Mass.), which was used to promote the differentiation of EPCs into a capillary tube-like structure, was added to 48-well plates. […] Tube formation was quantified by measuring the long axis of each tube in 3 random fields per well by using Image-Pro Plus software.

early EPCs [6] = assay: Early EPC chemotaxis assay (Transwell); assay type: cell-based, human; settings: 4 hours, FIG. 2C
Experimental: The chemotactic motility of early EPCs was evaluated using a Transwell. The lower filter surface was coated with gelatin. Fmoc-10a in presence or absence of MV2 complete medium was placed in the lower wells. The chamber was incubated at 37° C. for 4 hours. Cells were fixed with cold methanol and stained with 0.5% crystal violet.

[7] = system: VEGF release from B16F10 melanoma cells; assay: VEGF ELISA assay; assay type: cell-based, mouse; settings: B16F10, 24 hr, ELISA of supernatant, FIG. 4B
Experimental: as §2
B16F10 cells were treated with various concentrations of Fmoc-10a or vehicle for 24 hr, and then the supernatant was collected to examine the amount of vascular endothelial growth factor (VEGF) protein. VEGF mouse ELISA Kit (Novex, Invitrogen) was used according to the manufacturer's instructions.

[8] = system: VEGF-induced microvessel formation; assay: Directed in vivo angiogenesis assay (DIVAA); parameters: species or system C57BL/6 mice; settings: VEGF-containing DIVAA tubes implanted in mice, 15 days, FIG. 3B
Experimental: Surgical silicone tubes were filled at 4° C. with Matrigel containing VEGF with or without Fmoc-10a. Then, the dorsal haunches of the anesthetized mice (C57BL/6 mice) were shaved and sterile prepped. A 5 mm cutaneous incision was made and a 10 mm deep subcutaneous pocket was created with a sterile hemostat. DIVAA tubes were incubated at 37° C. for 1 hour to allow gel formation and then implanted into the dorsal flank of mice. After 15 days, DIVAA tubes were taken and photographed. Neovessels were quantified by measuring the hemoglobin of the plug with the Drabkin method. All procedures involving animal experiment were approved by the Institutional Animal Care and Use Committee at Mackay Medical College.

late EPCs [9] = assay: Transwell cell migration assay; assay type: cell-based, human; settings: 16 h treatment, FIG. 1D
Experimental: as §1, with “1×10^6 cells/cm^2 were seeded on fibronectin-coated dish (BD Biosciences) and maintained in 37° C. incubator under a humidified 95% air and 5% CO2 atmosphere.” left out
EPCs (5×10^4 cells/well) were seeded onto the upper chamber with MV2 complete medium, then incubated in the bottom chamber with MV2 complete medium containing 2% FBS with the indicated concentrations of Fmoc-10. […] Cell migration was quantified by counting the number of stained cells in 10 random fields with the inverted phase contrast microscope and photographed.

[10] = system: hyperoxia-induced retinal neovascularization; assay: Oxygen-induced retinopathy (OIR) model; assay type: in vivo, BALB/c-nude mice; settings: retinal whole mounts, FIG. 5
Text: The mouse model of OIR has been widely used to induce retinal neovascularization in studies related to retinal ischaemic diseases, including AMD, and in studies evaluating the efficacy of antiangiogenic compounds. Briefly, BALB/c-nude mice at postnatal day (P7) are subjected to hyperoxia (75% oxygen) along with their nursing dam for 5 days (P12), and then to room air to produce retinal neovascularization. Neovascularization occurs upon return to normoxia and peaks at P17. All of the mice in the OR model were perfusion fixed via left ventricular puncture at the time of euthanasia, with 5 ml rhodamine-conjugated dextran. Then, angiography of retinal vasculature was performed and retinal whole mounts were prepared to score features of retinopathy.

| Molecule | LDH release of late EPCs (late EPCs [1]) | lung metastasis of melanoma cancer (pulmonary colony number) (B16F10 cells) | tumor growth of melanoma cells (B16F10 melanoma) | cell proliferation of late EPCs (late EPCs [2]) | cell invasion of melanoma cells (B16F10 melanoma cells) | VEGF-induced vessels sprouting from aortic rings [3] | CFU-Hill colonies of early EPCs (early EPCs [4]) | tube formation of late EPCs (late EPCs [5]) | chemotaxis of early EPCs (early EPCs [6]) | production of VEGF in melanoma cells [7] | microvessel formation in the Matrigel plugs (hemoglobin content) [8] | cell migration of late EPCs (late EPCs [9]) | hyperoxia-induced pathological neovascularization in mice [10] |
| --- | --- | --- | --- | --- | --- | --- | --- | --- | --- | --- | --- | --- | --- |
| CC(C)[C@H](NC(=O)OCC1c2ccccc2-c2ccccc21)C(=O)N[C@@H](CO)Cc1ccccc1 [Fmoc-10a, (9H-fluoren-9-yl)methyl (S)-1-((R)-1-hydroxy-3-phenylpropan-2-ylamino)-3-methyl-1-oxobutan-2-ylcarbamate] | does not induce LDH release | substantially suppresses lung metastasis | potently blocks tumor growth of melanoma cells in a dose-dependent manner | suppresses cell proliferation of late EPCs in a concentration-dependent manner | significantly inhibits cell invasion | dramatically abrogated VEGF-induced vessels sprouting | significantly inhibits CFU-Hill colonies | significantly inhibits | markedly suppresses chemotaxis | significantly inhibits | attenuated concentration-dependently microvessel formation | significantly inhibits cell migration | significantly blocks hyperoxia-induced pathological neovascularization |
| Avastin: Avastin (10 μg) was used as positive control in the OIR model [reference compound] | – | – | – | – | – | – | – | – | – | – | – | – | significantly blocks hyperoxia-induced pathological neovascularization |
